Values after ≈ are worked out from the molar mass of the structure shown.
Tests used:
Assay type in all cases: functional
Bacillus cereus [1] = assay: Antimicrobial activity against Bacillus cereus at 2 ug/ml by broth microdilution method
Enterococcus gallinarum [2] = assay: Antimicrobial activity against Enterococcus gallinarum at 2 ug/ml by broth microdilution method
[3] = tested on: Streptococcus vestibularis; assay: Antimicrobial activity against viridans group Streptococcus vestibularis by broth microdilution method
Enterococcus durans = assay: Antimicrobial activity against Enterococcus durans at 0.25 ug/ml by broth microdilution method
Bacillus sp. [4] = assay: Antimicrobial activity against Bacillus spp. at 2 ug/ml by broth microdilution method; conditions: Bacillus sp. (in: firmicutes)
Listeria monocytogenes [5] = assay: Antimicrobial activity against Listeria monocytogenes at <= 0.06 ug/ml by broth microdilution method
Enterococcus avium [6] = assay: Antimicrobial activity against Enterococcus avium at 0.25 ug/ml by broth microdilution method
Corynebacterium striatum [7] = assay: Antimicrobial activity against Corynebacterium striatum at <= 0.06 ug/ml by broth microdilution method
Enterococcus raffinosus [8] = assay: Antimicrobial activity against Enterococcus raffinosus at 1 ug/ml by broth microdilution method
Enterococcus avium [9] = assay: Antimicrobial activity against Enterococcus avium at 1 ug/ml by broth microdilution method
Enterococcus hirae [10] = assay: Antimicrobial activity against Enterococcus hirae at 0.5 ug/ml by broth microdilution method
[11] = tested on: Corynebacterium pseudodiphtheriticum; assay: Antimicrobial activity against Corynebacterium pseudodiphtheriticum at 0.12 ug/ml by broth microdilution method
Rothia mucilaginosa [12] = assay: Antimicrobial activity against Rothia mucilaginosa at 2 ug/ml by broth microdilution method
Streptococcus mitis = assay: Antimicrobial activity against viridans group Streptococcus mitis at 1 ug/ml by broth microdilution method
Streptococcus [13] = assay: Antimicrobial activity against beta hemolytic Streptococci group G at 0.5 ug/ml by broth microdilution method
Rothia mucilaginosa [14] = assay: Antimicrobial activity against Rothia mucilaginosa at 1 ug/ml by broth microdilution method
Streptococcus sanguinis [15] = assay: Antimicrobial activity against viridans group Streptococcus sanguinis at 1 ug/ml by broth microdilution method
Bacillus sp. [16] = assay: Antimicrobial activity against Bacillus spp. by broth microdilution method; conditions: Bacillus sp. (in: firmicutes)
Streptococcus mutans = assay: Antimicrobial activity against viridans group Streptococcus mutans at 0.25 ug/ml by broth microdilution method
Enterococcus raffinosus [17] = assay: Antimicrobial activity against Enterococcus raffinosus by broth microdilution method
Corynebacterium striatum [18] = assay: Antimicrobial activity against Corynebacterium striatum at 0.5 ug/ml by broth microdilution method
Listeria monocytogenes [19] = assay: Antimicrobial activity against Listeria monocytogenes at 0.5 ug/ml by broth microdilution method
Streptococcus salivarius = assay: Antimicrobial activity against viridans group Streptococcus salivarius at <= 0.06 ug/ml by broth microdilution method
Streptococcus anginosus = assay: Antimicrobial activity against viridans group Streptococcus anginosus by broth microdilution method
Bacillus cereus [20] = assay: Antimicrobial activity against Bacillus cereus at 0.12 ug/ml by broth microdilution method
Streptococcus sanguinis [21] = assay: Antimicrobial activity against viridans group Streptococcus sanguinis by broth microdilution method
Enterococcus gallinarum [22] = assay: Antimicrobial activity against Enterococcus gallinarum at 0.25 ug/ml by broth microdilution method
Streptococcus [23] = assay: Antimicrobial activity against beta hemolytic Streptococci group G at <= 0.06 ug/ml by broth microdilution method
Listeria monocytogenes [24] = assay: Antimicrobial activity against Listeria monocytogenes at 0.25 ug/ml by broth microdilution method
Corynebacterium jeikeium = assay: Antimicrobial activity against Corynebacterium jeikeium at <= 0.06 ug/ml by broth microdilution method
Enterococcus hirae [25] = assay: Antimicrobial activity against Enterococcus hirae at 1 ug/ml by broth microdilution method
[26] = tested on: Streptococcus parasanguinis; assay: Antimicrobial activity against viridans group Streptococcus parasanguis at 0.25 ug/ml by broth microdilution method
[27] = tested on: Corynebacterium pseudodiphtheriticum; assay: Antimicrobial activity against Corynebacterium pseudodiphtheriticum at <= 0.06 ug/ml by broth microdilution method
Bacillus sp. [28] = assay: Antimicrobial activity against Bacillus spp. at <= 0.06 ug/ml by broth microdilution method
Micrococcus luteus = assay: Antimicrobial activity against Micrococcus luteus at 1 ug/ml by broth microdilution method
Streptococcus [29] = assay: Antimicrobial activity against beta hemolytic Streptococcus group C at 0.5 ug/ml by broth microdilution method

With `CC(=O)NC[C@H]1CN(c2ccc(N3CCOCC3)c(F)c2)C(=O)O1` [LINEZOLID] the inhibition at 2 µg/mL (Bacillus cereus [1]) was 100%, the inhibition at 2 µg/mL (Enterococcus gallinarum [2]) was 99.2% and the MIC50 [3] was 1 µg/mL (≈ 2.96 µM). For the same compound, the MIC90 [3] was 1 µg/mL (≈ 2.96 µM), the inhibition at 0.25 µg/mL (Enterococcus durans) was 2% and the inhibition at 2 µg/mL (Bacillus sp. [4]) was 100%. The Inhibition (Listeria monocytogenes [5]) was 0%, the inhibition at 0.25 µg/mL (Enterococcus avium [6]) was 0% and the Inhibition (Corynebacterium striatum [7]) was 0%. It also gave an inhibition at 1 µg/mL (Enterococcus raffinosus [8]) of 46.2%, an inhibition at 1 µg/mL (Enterococcus avium [9]) of 52.6% and an inhibition at 0.5 µg/mL (Enterococcus hirae [10]) of 0%. It also gave an inhibition at 0.12 µg/mL [11] of 0%, an inhibition at 2 µg/mL (Rothia mucilaginosa [12]) of 100% and an inhibition at 1 µg/mL (Streptococcus mitis) of 99.1%. For the same compound, the inhibition at 0.5 µg/mL (Streptococcus [13]) was 8.2%, the inhibition at 1 µg/mL (Rothia mucilaginosa [14]) was 94.4% and the inhibition at 1 µg/mL (Streptococcus sanguinis [15]) was 97.9%. The MIC50 (Bacillus sp. [16]) was 1 µg/mL (≈ 2.96 µM), the MIC90 (Bacillus sp. [16]) was 1 µg/mL (≈ 2.96 µM) and the inhibition at 0.25 µg/mL (Streptococcus mutans) was 0%. It also gave an MIC50 (Enterococcus raffinosus [17]) of 2 µg/mL (≈ 5.93 µM), an MIC90 (Enterococcus raffinosus [17]) of 2 µg/mL (≈ 5.93 µM) and an inhibition at 0.5 µg/mL (Corynebacterium striatum [18]) of 100%. It also gave an inhibition at 0.5 µg/mL (Listeria monocytogenes [19]) of 0.7%, an Inhibition (Streptococcus salivarius) of 0% and an MIC50 (Streptococcus anginosus) of 1 µg/mL (≈ 2.96 µM). The MIC90 (Streptococcus anginosus) was 1 µg/mL (≈ 2.96 µM), the inhibition at 0.12 µg/mL (Bacillus cereus [20]) was 1.7% and the MIC50 (Streptococcus sanguinis [21]) was 1 µg/mL (≈ 2.96 µM). It also gave an MIC90 (Streptococcus sanguinis [21]) of 1 µg/mL (≈ 2.96 µM), an inhibition at 0.25 µg/mL (Enterococcus gallinarum [22]) of 0% and an Inhibition (Streptococcus [23]) of 0.5%. The inhibition at 0.25 µg/mL (Listeria monocytogenes [24]) was 0%, the Inhibition (Corynebacterium jeikeium) was 1.7% and the inhibition at 1 µg/mL (Enterococcus hirae [25]) was 37.5%. The inhibition at 0.25 µg/mL [26] was 0%, the Inhibition [27] was 0% and the Inhibition (Bacillus sp. [28]) was 0.7%. For the same compound, the inhibition at 1 µg/mL (Micrococcus luteus) was 100% and the inhibition at 0.5 µg/mL (Streptococcus [29]) was 16.6%.

From ChEMBL document CHEMBL1145534 (2007)
